This is an account of results in patent US7166472B2, “Method for the identification of agents that inhibit or promote cataracts and uses thereof” (The General Hospital Corporation, priority 2000, dated 2007).

In assay [1] the target is bovine serum albumin (BSA) (Bos taurus, UniProt P02769). Particulars: co-incubation with Cu(II), 5 days 37° C. dark.
The nature of assay [2]: Superoxide assay (dihydroethidium fluorometric). The assay is classed as biochemical. Particulars: test compound 10 μM. On the procedure: Superoxide Assay—The fluorometric assay for superoxide is based upon the dihydroethidium (DHE, HYDROETHDNE™) method (Molecular Probes, Eugene, Oreg.) and used according to the manufacturer's instructions. DHE (1 mM) was freshly prepared in 100% argon-sparged DMSO. The reaction solutions were carried out in PBS, pH 7.4, under ambient gas conditions, in 96-well format plates and contained a test compound (KYN, 3-HK, 3-HAA, and ANA, each at 10 μM), DHE (100 μM), +/− Cu(II)-glycine (1 μM) and incubated at 37EC for 60 minutes. […] Abolition of the reading by co-incubation with superoxide dismutase (1000 U/ml) was used for establishing superoxide specificity. The fluorescent readings were recorded by a Packard FLUOROCOUNT™ fluorescent plate reader with a 510 nm excitation filter and 590 nm emission filter. Potassium superoxide dissolved in degassed DMSO was used as a positive control.

Another assay addresses T1, αB-crystallin (Bos taurus, UniProt P02510).
T1 sequence (P02510 1-175): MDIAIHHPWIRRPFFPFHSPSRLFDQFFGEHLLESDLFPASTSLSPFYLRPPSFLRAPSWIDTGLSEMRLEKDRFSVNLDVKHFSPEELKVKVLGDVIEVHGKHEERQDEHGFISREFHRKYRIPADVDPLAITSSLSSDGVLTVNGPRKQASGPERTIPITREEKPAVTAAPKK
Kind of assay: αB-crystallin cross-linking in total calf lens protein (Western blot). Particulars: metabolite 10 μM, five days 37° C. dark.

The nature of assay [3]: Hydrogen peroxide assay (DCF fluorometric). The class given is biochemical. Particulars: for hydrogen peroxide production: Cu(II) present, dark.
For assay [4], the target named is T2, recombinant human αB-crystallin (Homo sapiens, UniProt P02511).
T2 construct: gift of Dr. J. Liang, Brigham and Women's Hospital
T2 sequence (P02511 1-175): T1 sequence (P02510 1-175) with A40T, I61F, A132T, A152V
The assay is described as follows: Recombinant human αB-crystallin cross-linking (SDS-PAGE, silver stain). The class given is biochemical. Particulars: 5 days 37° C. dark. The protocol:
Various solutions containing 3-HK (10 μM) or other kynurenine pathway metabolites (10 μM), Cu(II)-glycine (10 μM), Fe(III)-citrate (10 μM), and triethylenetetramine (TETA, 200 μM), were added in combinations as indicated. […] After incubation, aliquots of the total lens protein solutions were mixed with sample buffer containing 4% SDS and 5% β-mercaptoethanol, heated to 95° C. for 5 minutes, and loaded at 1 μg/lane on a 10–20% Tricine gel (Novex, San Diego, Calif.). […] For the experiments with recombinant αB-crystallin, aliquots of the protein solutions were mixed with sample running buffer containing NuPAGE sample buffer (Novex, San Diego, Calif.) and 10% β-mercaptoethanol, heated to 95° C. for 5 minutes, spun briefly, then loaded on a NuPAGE 4–12% Bis-Tris polyacrylamide gel at 375 ng/lane and electrophoresed with denaturing 3-(N-morpholino)propanesulfonic acid (MOPS)-SDS running buffer according to the manufacturer's recommendations.
To exclude the effects of other lens proteins on the observed findings in FIG. 5, these interactions with purified recombinant human αB-crystallin were examined.

Substitutions are numbered along the chain they refer to.

Chain of bovine serum albumin (BSA) (P02769 25-607): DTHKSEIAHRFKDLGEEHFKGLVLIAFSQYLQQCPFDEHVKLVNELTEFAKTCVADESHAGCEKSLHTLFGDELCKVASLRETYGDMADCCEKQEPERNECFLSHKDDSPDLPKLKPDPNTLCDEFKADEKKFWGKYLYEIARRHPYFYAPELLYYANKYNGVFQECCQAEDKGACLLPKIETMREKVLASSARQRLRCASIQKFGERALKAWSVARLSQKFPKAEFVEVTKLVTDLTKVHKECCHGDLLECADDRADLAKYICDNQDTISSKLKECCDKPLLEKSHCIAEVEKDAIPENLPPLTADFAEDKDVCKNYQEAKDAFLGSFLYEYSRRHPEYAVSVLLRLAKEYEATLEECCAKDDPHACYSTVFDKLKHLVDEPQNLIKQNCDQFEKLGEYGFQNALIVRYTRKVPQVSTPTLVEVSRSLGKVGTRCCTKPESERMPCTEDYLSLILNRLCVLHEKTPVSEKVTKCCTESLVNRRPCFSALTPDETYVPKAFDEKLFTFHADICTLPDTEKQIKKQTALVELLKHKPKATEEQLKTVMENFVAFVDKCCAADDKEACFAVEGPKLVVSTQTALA

Regarding `Nc1c(O)cccc1C(=O)CC(N)C(=O)O` (stereo not drawn) [3-HK, 3-hydroxykynurenine], the “BSA protein depletion with Cu(II)” value in assay [1] is recorded as “the monomer was depleted without emergence of apparent detectable cross-linked species”. For the same molecule, in assay [2] (Cu(II)-glycine 1 μM), the “effect of Cu(II) on superoxide generation” value is recorded as “did not promote”. Besides, the superoxide production entry in assay [2] (ambient oxygen, dark, 60 minutes) was “negligible”. On αB-crystallin (Cu(II) 10 μM), the “αB-crystallin cross-linking in the presence of Cu(II)” value is recorded as “dramatically enhanced”. The αB-crystallin cross-linking result at αB-crystallin (no added Cu(II)) is “apparent dimers and higher order oligomers were observed”; in assay [4] (metabolite 10 μM alone) it was “apparent dimeric and higher order oligomers were observed”. In addition, in assay [3], the “hydrogen peroxide generated relative to available Cu(II)” value was “approximately 3 fold”. For the same molecule, the hydrogen peroxide generated entry in assay [3] (ambient gas conditions, CHELEX-treated PBS, FIG. 4C) is given as “approx. 3 μM”. Moreover, the results for the hydrogen peroxide production in assay [3] (ambient oxygen tension), in assay [3] (high oxygen tension) and in assay [3] (low oxygen tension (continuous argon sparging)) were 1.49 μM H2O2, 1.84 μM H2O2 and 0.35 μM H2O2, respectively. In addition, the “αB-crystallin cross-linking with Cu(II)” value in assay [4] (metabolite 10 μM and Cu(II) 10 μM) was “monomeric and apparent dimeric αB-crystallin species were depleted and a prominent high molecular weight smear was observed”.
